Experimental data taken from patent publication US20230086702A1, “SUBSTITUTED 2-AMINO-PYRAZOLYL-[1,2,4]TRIAZOLO[1,5A]PYRIDINE DERIVATIVES AND USE THEREOF” (The Johns Hopkins University, priority 2019, published 2023).

Assays:
[1] = target: T1, DLK (Homo sapiens, UniProt Q12852); experiment: DLK biochemical assay (TR-FRET, MKK7 phosphorylation)
T1 construct: 10 nM DLK, catalytic domain, Carna Biosiences; purchased Carna Biosciences ('Carna Biosiences' [sic])
T1 sequence (Q12852 125-366 limits assumed): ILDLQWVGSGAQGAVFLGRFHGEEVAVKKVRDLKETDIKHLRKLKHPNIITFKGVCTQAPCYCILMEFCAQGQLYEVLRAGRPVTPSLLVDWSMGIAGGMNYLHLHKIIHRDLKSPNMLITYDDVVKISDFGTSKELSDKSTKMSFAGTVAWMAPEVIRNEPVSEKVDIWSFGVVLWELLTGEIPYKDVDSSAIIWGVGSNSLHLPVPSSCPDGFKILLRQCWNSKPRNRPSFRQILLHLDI
Procedure: (§1) DLK assay is a biochemical assay format designed to screen for inhibitors of DLK. Enzymatic activity of DLK is measured by monitoring phosphorylation of the physiological substrate MKK7 (MAP2K7, Dual specificity mitogen-activated protein kinase kinase 7). Phosphorylation is detected by a TR-FRET system whereby His-tagged MKK7 is labeled by a XL665-labeled anti-His antibody (FRET acceptor, emission 665 nm). DLK phosphorylates MKK7 at T275/S277, which is detected by an Eu-labeled anti-phospho-MKK7 (T275/S277) antibody (FRET donor, excitation 340 nm). Phosphorylation of MKK7 results in an increased TR-FRET signal (Ratio XL665-channel/Eu-channel) and inhibition of enzymatic activity of DLK decreases the TR-FRET signal.
Assay Protocol for 1536 MTP format: test compounds are predispensed (60 nl) in test plates; +3 μl DLK solution (10 nM DLK, catalytic domain, Carna Biosiences, 0.6 mM DTT in assay buffer); +2 μl substrate solution (15 nM MKK7, LDB; 60 μM ATP; 0.4 mM DTT in assay buffer); 90 min incubation at RT; +2 μl detection mix (5 nM XL665-labeled anti-His antibody, Cisbio; 0.1 nM Eu-labeled anti-phospho-MKK7 (T275/S277), Cisbio/Millipore in detection buffer); 16 h incubation at 37° C.; endpoint measurement BMG (HTRF).
(§2) Assay Protocol for 384 low volume MTP format: 1 μl of test compounds is pipetted into test plate; +5 μl DLK solution (10 nM DLK, catalytic domain, Carna Biosiences in assay buffer); +5 μl substrate solution (15 nM MKK7, LDB; 60 μM ATP, in assay buffer); 90 min incubation at RT; +9 μl detection mix (20 nM XL665-labeled anti-His antibody, Cisbio; 0.4 nM Eu-labeled anti-phospho-MKK7 (T275/S277), Cisbio/Millipore in detection buffer); 16 h incubation at 4° C.; endpoint measurement BMG (HTRF).
(§3) All indicated concentrations final concentrations.
(§4) Assay buffer (384 format): 50 mM Hepes pH 7.5, 10 mM MgCl2, 1 mM EGTA, 1 mM DTT, 0.01% Triton X-100, 0.01% BSA, 1:500 Smart Block.
(§5) Detection buffer: 25 mM Tris/HCl pH 7.5, 100 mM EDTA, 100 mM NaCl, 200 mM KF, 0.01% Tween 20, 1:500 Smart Block.

[2] = target: T2, LZK (Homo sapiens, UniProt O43283); experiment: LZK biochemical assay (TR-FRET, MKK7 phosphorylation)
T2 construct: 10 nM LZK, catalytic domain, Carna Biosiences in assay buffer; purchased Carna Biosciences ('Carna Biosiences' [sic])
T2 sequence (O43283 168-409 limits assumed): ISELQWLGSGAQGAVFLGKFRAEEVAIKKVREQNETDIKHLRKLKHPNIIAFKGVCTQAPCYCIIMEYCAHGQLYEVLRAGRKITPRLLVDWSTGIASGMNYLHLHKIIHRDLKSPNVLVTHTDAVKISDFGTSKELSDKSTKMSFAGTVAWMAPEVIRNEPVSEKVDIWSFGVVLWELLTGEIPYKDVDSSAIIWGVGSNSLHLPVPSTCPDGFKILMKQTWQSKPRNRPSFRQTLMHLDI
Procedure: as §1, with “LZK” for “DLK”, “LZK.” for “DLK.”, “T275/S277” for “T275/S277,”
as §2, with “compound” for “compounds”, “LZK” for “DLK”, “LZK,” for “DLK,”, “15” for “60”, “+5” for “+9”, “32°” for “4°”
as §3, §4, §5

IC50 [1]	IC50 [2]	SMILES
7.5 nM	11 nM	CC(C)C(c1ccc(C(F)(F)F)nc1)n1cc(-c2cc(-c3ccc(OC4CC4)nc3)n3nc(N)nc3c2)cn1 (racemic) [II-48, 5-[6-(Cyclopropyloxy)pyridin-3-yl]-7-(1-{2-methyl-1-[6-(trifluoromethyl)pyridin-3-yl]propyl}-1H-pyrazol-4-yl)[1,2,4]triazolo[1,5-a]pyridin-2-amine]
31 nM	84 nM	CC(C)C(c1ccc(C(F)F)nc1)n1cc(-c2cc(-c3ccc(OC(F)F)nc3)n3nc(N)nc3c2)cn1 (racemic) [II-49, 5-[6-(Difluoromethoxy)pyridin-3-yl]-7-(1-{1-[6-(difluoromethyl)pyridin-3-yl]-2-methylpropyl}-1H-pyrazol-4-yl)[1,2,4]triazolo[1,5-a]pyridin-2-amine]
6 nM	19 nM	CC(C)C(c1ccc(C(F)F)nc1)n1cc(-c2cc(-c3ccc(C4CC4)nc3)n3nc(N)nc3c2)cn1 (racemic) [II-52, 5-(6-Cyclopropylpyridin-3-yl)-7-(1-{1-[6-(difluoromethyl)pyridin-3-yl]-2-methylpropyl}-1H-pyrazol-4-yl)[1,2,4]triazolo[1,5-a]pyridin-2-amine]
21 nM	24 nM	CCC(c1ccc(C(F)(F)F)nc1)n1cc(-c2cc(-c3ccc(C4CC4)nc3)n3nc(N)nc3c2)cn1 (racemic) [II-55, 5-(6-Cyclopropylpyridin-3-yl)-7-(1-{1-[6-(trifluoromethyl)pyridin-3-yl]propyl}-1H-pyrazol-4-yl)[1,2,4]triazolo[1,5-a]pyridin-2-amine]
21 nM	22 nM	CC(C)C(c1ccc(C(F)(F)F)nc1)n1cc(-c2cc(-c3ccc(C4CC4)nc3)n3nc(N)nc3c2)cn1 (racemic) [II-58, 5-(6-Cyclopropylpyridin-3-yl)-7-(1-{2-methyl-1-[6-(trifluoromethyl)pyridin-3-yl]propyl}-1H-pyrazol-4-yl)[1,2,4]triazolo[1,5-a]pyridin-2-amine]
65 nM	62 nM	CCC(c1ccc(C(F)F)nc1)n1cc(-c2cc(-c3ccc(C(F)(F)F)nc3)n3nc(N)nc3c2)cn1 (racemic) [II-61, 7-(1-{1-[6-(Difluoromethyl)pyridin-3-yl]propyl}-1H-pyrazol-4-yl)-5-[6-(trifluoromethyl)pyridin-3-yl][1,2,4]triazolo[1,5-a]pyridin-2-amine]
40 nM	59 nM	CC(C)C(c1ccc(C(F)F)nc1)n1cc(-c2cc(-c3ccc(C(F)(F)F)nc3)n3nc(N)nc3c2)cn1 (racemic) [II-64, 7-(1-{1-[6-(Difluoromethyl)pyridin-3-yl]-2-methylpropyl}-1H-pyrazol-4-yl)-5-[6-(trifluoromethyl)pyridin-3-yl][1,2,4]triazolo[1,5-a]pyridin-2-amine]
12 nM	15 nM	CCC(c1ccc(C(F)F)nc1)n1cc(-c2cc(-c3ccc(C4CC4)nc3)n3nc(N)nc3c2)cn1 (racemic) [II-67, 5-(6-Cyclopropylpyridin-3-yl)-7-(1-{1-[6-(difluoromethyl)pyridin-3-yl]propyl}-1H-pyrazol-4-yl)[1,2,4]triazolo[1,5-a]pyridin-2-amine]
26 nM	15 nM	CC(C)C(c1ccc(C(F)(F)F)nc1)n1cc(-c2cc(-c3ccc(C(F)F)nc3)n3nc(N)nc3c2)cn1 (racemic) [II-70, 5-[6-(Difluoromethyl)pyridin-3-yl]-7-(1-{2-methyl-1-[6-(trifluoromethyl)pyridin-3-yl]propyl}-1H-pyrazol-4-yl)[1,2,4]triazolo[1,5-a]pyridin-2-amine]
44 nM	44 nM	CC(C)C(c1ccc(C(F)(F)F)nc1)n1cc(-c2cc(-c3ccc(C4CC(F)(F)C4)nc3)n3nc(N)nc3c2)cn1 (racemic) [II-73, 5-[6-(3,3-Difluorocyclobutyl)pyridin-3-yl]-7-(1-{2-methyl-1-[6-(trifluoromethyl)pyridin-3-yl]propyl}-1H-pyrazol-4-yl)[1,2,4]triazolo[1,5-a]pyridin-2-amine]
21 nM	16 nM	Nc1nc2cc(-c3cnn(C(c4ccc(C(F)F)nc4)C4CCOCC4)c3)cc(-c3ccc(C(F)(F)F)nc3)n2n1 (racemic) [II-76, 7-(1-{[6-(Difluoromethyl)pyridin-3-yl](tetrahydro-2H-pyran-4-yl)methyl}-1H-pyrazol-4-yl)-5-[6-(trifluoromethyl)pyridin-3-yl][1,2,4]triazolo[1,5-a]pyridin-2-amine]
46 nM	27 nM	CC(C)C(c1ccc(C(F)(F)F)nc1)n1cc(-c2cc(-c3ccc(N4CCCC4)nc3)n3nc(N)nc3c2)cn1 (racemic) [II-79, 7-(1-{2-Methyl-1-[6-(trifluoromethyl)pyridin-3-yl]propyl}-1H-pyrazol-4-yl)-5-[6-(pyrrolidin-1-yl)pyridin-3-yl][1,2,4]triazolo[1,5-a]pyridin-2-amine]
21 nM	17 nM	CC(C)C(c1ccc(C(F)(F)F)nc1)n1cc(-c2cc(-c3ccc(C4(O)CCC4)nc3)n3nc(N)nc3c2)cn1 (racemic) [II-80, 1-{5-[2-Amino-7-(1-{2-methyl-1-[6-(trifluoromethyl)pyridin-3-yl]propyl}-1H-pyrazol-4-yl)[1,2,4]triazolo[1,5-a]pyridin-5-yl]pyridin-2-yl}cyclobutan-1-ol]
230 nM	320 nM	CC(C)C(c1ccc(C(F)(F)F)nc1)n1cc(-c2cc(-c3cnc(OCC(F)(F)F)nc3)n3nc(N)nc3c2)cn1 (racemic) [II-85, 7-(1-{2-Methyl-1-[6-(trifluoromethyl)pyridin-3-yl]propyl}-1H-pyrazol-4-yl)-5-[2-(2,2,2-trifluoroethoxy)pyrimidin-5-yl][1,2,4]triazolo[1,5-a]pyridin-2-amine]
12 nM	39 nM	Nc1nc2c(-c3cnn(CC4CC4(F)F)c3)cc(-c3cnn(Cc4ccccc4)c3)cn2n1 (racemic) [II-89, 6-(1-Benzyl-1H-pyrazol-4-yl)-8-{1-[(2,2-difluorocyclopropyl)methyl]-1H-pyrazol-4-yl}[1,2,4]triazolo[1,5-a]pyridin-2-amine]
9.2 nM	150 nM	CCC(c1ccc(C(F)(F)F)cc1)n1cc(-c2cc(-c3cnn(C)c3)c3nc(N)nn3c2)cn1 (racemic) [II-99, 8-(1-Methyl-1H-pyrazol-4-yl)-6-(1-{1-[4-(trifluoromethyl)phenyl]propyl}-1H-pyrazol-4-yl)[1,2,4]triazolo[1,5-a]pyridin-2-amine]
